Target: T1, BACE-1 enzyme (Homo sapiens, UniProt P56817)
T1 construct: purchased R & D Systems 931AS
Assay: BACE Fluorescence Resonance Energy Transfer (FRET) Assay
Type: biochemical
Settings: pH 4-4.5, 30 min pre-incubation, about 1.5 hours reaction
Method: BACE Fluorescence Resonance Energy Transfer (FRET) Assay
In the following assay, the proteolytic activity of BACE is measured by observing cleavage of a fluorescent group from a peptide substrate containing a rhodamine fluorescent donor and a quenching acceptor.
The inhibitory activity of compounds of Formula (I) may be compared to a statine derived control inhibitor STA200 (MP Biomedical Cat. #STA-200). The cleavage reaction occurs when a BACE-1 substrate (Invitrogen, Cat. #P2986) was added to a reaction mixture containing BACE-1 enzyme (R & D Systems, Cat. #931AS) and allowed to proceed for about 1.5 hours. Fluorescence, used as a marker of BACE activity, is monitored using 540 nm excitation and 585 nm emission wavelengths (Envision, Perkin Elmer).
A typical assay reaction contains BACE-1 enzyme—in assay buffer (50 mM sodium acetate, pH 4-4.5, 0.01% CHAPS (3-[(3-Cholamidopropyl)dimethylammonio]-1-propanesulfonate), 0.0125% TritonX-100, 0.006% EDTA) which is pre-incubated for 30 minutes with test compound in 7.5% DMSO. The reaction is initiated with the addition of BACE-1 substrate in assay buffer and allowed to proceed for about 1.5 hours at room temperature. Assays are conducted in black 384-well microtiter plates and scanned at room temperature using 540 nm excitation and 585 nm emission wavelengths.
In some instances, the percent inhibition at a given concentration is reported instead of the IC50.

T1 sequence (P56817 46-457 limits assumed): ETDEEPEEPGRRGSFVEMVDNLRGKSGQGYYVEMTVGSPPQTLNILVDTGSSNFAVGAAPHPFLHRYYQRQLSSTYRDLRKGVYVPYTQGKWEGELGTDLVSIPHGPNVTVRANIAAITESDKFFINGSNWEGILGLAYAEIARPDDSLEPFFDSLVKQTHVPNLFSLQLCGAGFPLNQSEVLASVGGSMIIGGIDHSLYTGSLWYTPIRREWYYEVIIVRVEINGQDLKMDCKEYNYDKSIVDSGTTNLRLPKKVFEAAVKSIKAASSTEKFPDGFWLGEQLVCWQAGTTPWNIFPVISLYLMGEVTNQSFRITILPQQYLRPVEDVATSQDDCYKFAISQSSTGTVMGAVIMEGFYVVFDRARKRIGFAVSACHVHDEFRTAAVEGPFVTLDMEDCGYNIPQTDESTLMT

SMILES	IC50
CN1CCN(c2cc(F)cn3cc(C(=O)Nc4nc5cc(-c6cc(F)cc(Cl)c6)ccc5[nH]4)nc23)CC1 [Example 128, 6-Fluoro-8-(4-methyl-piperazin-1-yl)-imidazo[1,2-a]pyridine-2-carboxylic acid [5-(3-chloro-5-fluoro-phenyl)-1H-benzoimidazol-2-yl]-amide]	0.31 µM
CCOc1cc(F)cn2cc(C(=O)Nc3nc4cc(-c5cc(F)cc(Cl)c5)ccc4[nH]3)nc12 [Example 129, 8-Ethoxy-6-fluoro-imidazo[1,2-a]pyridine-2-carboxylic acid [5-(3-chloro-5-fluoro-phenyl)-1H-benzoimidazol-2-yl]-amide]	0.43 µM
O=C(Nc1nc2cc(-c3cc(F)cc(Cl)c3)ccc2[nH]1)c1cn2cc(F)cc(N3CCNCC3)c2n1 [Example 130, 6-Fluoro-8-piperazin-1-yl-imidazo[1,2-a]pyridine-2-carboxylic acid [5-(3-chloro-5-fluoro-phenyl)-1H-benzoimidazol-2-yl]-amide]	0.35 µM
CN(C)c1cc(F)cn2cc(C(=O)Nc3nc4cc(-c5cc(F)cc(Cl)c5)ccc4[nH]3)nc12 [Example 131, 8-Dimethylamino-6-fluoro-imidazo[1,2-a]pyridine-2-carboxylic acid [5-(3-chloro-5-fluoro-phenyl)-1H-benzoimidazol-2-yl]-amide]	1.01 µM
CNc1cc(F)cn2cc(C(=O)Nc3nc4cc(-c5cccc(OC(F)(F)F)c5)ccc4[nH]3)nc12 [Example 132, 6-Fluoro-8-methylamino-imidazo[1,2-a]pyridine-2-carboxylic acid [5-(3-trifluoromethoxy-phenyl)-1H-benzoimidazol-2-yl]-amide]	1.04 µM
CN(C)c1cc(F)cn2cc(C(=O)Nc3nc4cc(-c5cccc(OC(F)(F)F)c5)ccc4[nH]3)nc12 [Example 133, 8-Dimethylamino-6-fluoro-imidazo[1,2-a]pyridine-2-carboxylic acid [5-(3-trifluoromethoxy-phenyl)-1H-benzoimidazol-2-yl]-amide]	0.64 µM
O=C(Nc1nc2cc(-c3cccc(OC(F)(F)F)c3)ccc2[nH]1)c1cn2cc(F)cc(N3CCNCC3)c2n1 [Example 134, 6-Fluoro-8-piperazin-1-yl-imidazo[1,2-a]pyridine-2-carboxylic acid [5-(3-trifluoromethoxy-phenyl)-1H-benzoimidazol-2-yl]-amide]	0.29 µM
CN1CCN(c2cc(F)cn3cc(C(=O)Nc4nc5cc(-c6cccc(OC(F)(F)F)c6)ccc5[nH]4)nc23)CC1 [Example 135, 6-Fluoro-8-(4-methyl-piperazin-1-yl)-imidazo[1,2-a]pyridine-2-carboxylic acid [5-(3-trifluoromethoxy-phenyl)-1H-benzoimidazol-2-yl]-amide]	0.2 µM
COc1cc(F)cn2cc(C(=O)Nc3nc4cc(-c5cccc(OC(F)(F)F)c5)ccc4[nH]3)nc12 [Example 136, 6-Fluoro-8-methoxy-imidazo[1,2-a]pyridine-2-carboxylic acid [5-(3-trifluoromethoxy-phenyl)-1H-benzoimidazol-2-yl]-amide]	0.23 µM
CCOc1cccc2nc(C(=O)Nc3nc4cc(-c5cccc(C(F)(F)F)c5)ccc4[nH]3)cn12 [Example 137, 5-Ethoxy-imidazo[1,2-a]pyridine-2-carboxylic acid [5-(3-trifluoromethyl-phenyl)-1H-benzoimidazol-2-yl]-amide]	1.39 µM
COCCNc1cc(F)cn2cc(C(=O)Nc3nc4cc(-c5cc(F)cc(Cl)c5)ccc4[nH]3)nc12 [Example 138, 6-Fluoro-8-(2-methoxy-ethylamino)-imidazo[1,2-a]pyridine-2-carboxylic acid [5-(3-chloro-5-fluoro-phenyl)-1H-benzoimidazol-2-yl]-amide]	1.27 µM
COCCCNc1cc(F)cn2cc(C(=O)Nc3nc4cc(-c5cc(F)cc(Cl)c5)ccc4[nH]3)nc12 [Example 139, 6-Fluoro-8-(3-methoxy-propylamino)-imidazo[1,2-a]pyridine-2-carboxylic acid [5-(3-chloro-5-fluoro-phenyl)-1H-benzoimidazol-2-yl]-amide]	0.48 µM
COCCOc1cc(F)cn2cc(C(=O)Nc3nc4cc(-c5cc(F)cc(Cl)c5)ccc4[nH]3)nc12 [Example 140, 6-Fluoro-8-(2-methoxy-ethoxy)-imidazo[1,2-a]pyridine-2-carboxylic acid [5-(3-chloro-5-fluoro phenyl)-1H-benzoimidazol-2-yl]-amide]	0.25 µM
CN(C)CCOc1cc(F)cn2cc(C(=O)Nc3nc4cc(-c5cc(F)cc(Cl)c5)ccc4[nH]3)nc12 [Example 141, 8-(2-Dimethylamino-ethoxy)-6-fluoro-imidazo[1,2-a]pyridine-2-carboxylic acid [5-(3-chloro-5-fluoro-phenyl)-1H-benzoimidazol-2-yl]-amide]	0.66 µM

The next lines start with the values.

IC50	SMILES
0.34 µM	CN(C)CCOc1cc(Cl)cn2cc(C(=O)Nc3nc4cc(-c5cc(F)cc(Cl)c5)ccc4[nH]3)nc12 [Example 142, 6-Chloro-8-(2-dimethylamino-ethoxy)-imidazo[1,2-a]pyridine-2-carboxylic acid [5-(3-chloro-5-fluoro-phenyl)-1H-benzoimidazol-2-yl]-amide]
1.06 µM	O=C(Nc1nc2cc(-c3cc(F)cc(Cl)c3)ccc2[nH]1)c1cn2cc(Cl)cc(Cl)c2n1 [Example 143, 6,8-Dichloro-imidazo[1,2-a]pyridine-2-carboxylic acid [5-(3-chloro-5-fluoro-phenyl)-1H-benzoimidazol-2-yl]-amide]
0.55 µM	Cc1cc(Cl)c2nc(C(=O)Nc3nc4cc(-c5cc(F)cc(Cl)c5)ccc4[nH]3)cn2c1 [Example 144, 8-Chloro-6-methyl-imidazo[1,2-a]pyridine-2-carboxylic acid [5-(3-chloro-5-fluoro-phenyl)-1H-benzoimidazol-2-yl]-amide]
0.52 µM	O=C(Nc1nc2cc(-c3cc(F)cc(Cl)c3)ccc2[nH]1)c1cn2cc(F)cc(OCCN3CCOCC3)c2n1 [Example 145, 6-Fluoro-8-(2-morpholin-4-yl-ethoxy)-imidazo[1,2-a]pyridine-2-carboxylic acid [5-(3-chloro-5-fluoro-phenyl)-1H-benzoimidazol-2-yl]-amide]
0.32 µM	Cc1cc(OCCN(C)C)c2nc(C(=O)Nc3nc4cc(-c5cc(F)cc(Cl)c5)ccc4[nH]3)cn2c1 [Example 146, 8-(2-Dimethylamino-ethoxy)-6-methyl-imidazo[1,2-a]pyridine-2-carboxylic acid [5-(3-chloro-5-fluoro-phenyl)-1H-benzoimidazol-2-yl]-amide]
0.41 µM	O=C(Nc1nc2cc(-c3cc(F)cc(Cl)c3)ccc2[nH]1)c1cn2cc(F)cc(OCCN3CCCCC3)c2n1 [Example 147, 6-Fluoro-8-(2-piperidin-1-yl-ethoxy)-imidazo[1,2-a]pyridine-2-carboxylic acid [5-(3-chloro-5-fluoro-phenyl)-1H-benzoimidazol-2-yl]-amide]
0.39 µM	CN1CCN(CCOc2cc(F)cn3cc(C(=O)Nc4nc5cc(-c6cc(F)cc(Cl)c6)ccc5[nH]4)nc23)CC1 [Example 148, 6-Fluoro-8-[2-(4-methyl-piperazin-1-yl)-ethoxy]-imidazo[1,2-a]pyridin-2-carboxylic acid [5-(3-chloro-5-fluoro-phenyl)-1H-benzoimidazol-2-yl]-amide]
